Experiment [1] has as its target T1, human GLP1R (Homo sapiens, UniProt P43220).
T1 construct: expressed in transfected cells; growth medium holds Blasticidin and Hygromycin
Put plainly: cAMP activity assay at the GLP-1 receptor (GLP1R). In kind it is cell-based. In outline: (§1)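 Peptides serially diluted from DMSO (10 points) and added to frozen-stock cells bearing human GLP1R (10,000 cells/well) or GCGR (30,000 cells/well), 1 h at RT, dark. EC50 by four-parameter logistic fit of HitHunter cAMPXS luminescence, read following overnight RT incubation.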

Experiment [2] deals with T2, human GCGR (Homo sapiens, UniProt P47871).
T2 construct: expressed in transfected cells; growth medium holds Blasticidin and Hygromycin
The experiment in a line: cAMP activity assay at the Glucagon receptor (GCGR). In kind it is cell-based. The conditions noted are these: for hGCGR/hGLP1R (hTone): ratio of GCGR EC50 to GLP1R EC50. The method, boiled down:
as §1

The mark [3] stands for this setting: summary statement: EC50 at each of the glucagon and GLP-1 receptors, read-out: EC50 at the GLP-1 receptor.
The mark [4] stands for this setting: summary statement: EC50 at each of the glucagon and GLP-1 receptors, read-out: EC50 at the glucagon receptor.
Where [5] appears, read: cells expressing human GCGR, cAMP production, buffer with or without 20% human serum (not stated which), read-out: GCGR EC50 human.

In general, EC50 refers to the concentration giving half of the maximal effect.

Like-named read-outs stand apart in the source and are kept apart here. Numbered stars: 1 amine (or outer) side, 2 acyl side, 3 side chain; on linkers, the order of the positions; unused ones are H or OH. Square brackets hold non-standard residues; d marks the D form. Side chains are listed from the residue outwards. Peptide text beside a SMILES is read from it. * marks the point of attachment. C18 diacid = O=C(O)CCCCCCCCCCCCCCCCC(=O)*; C16 diacid = O=C(O)CCCCCCCCCCCCCCC(=O)*; γGlu = O=C(O)[C@H](CCC(=O)[*:2])N[*:1]; Met(O2) = CS(=O)(=O)CC[C@H](N)C(=O)O; AEEA = NCCOCCOCC(=O)O; Aib = CC(C)(N)C(=O)O

T2 sequence (P47871 26-477): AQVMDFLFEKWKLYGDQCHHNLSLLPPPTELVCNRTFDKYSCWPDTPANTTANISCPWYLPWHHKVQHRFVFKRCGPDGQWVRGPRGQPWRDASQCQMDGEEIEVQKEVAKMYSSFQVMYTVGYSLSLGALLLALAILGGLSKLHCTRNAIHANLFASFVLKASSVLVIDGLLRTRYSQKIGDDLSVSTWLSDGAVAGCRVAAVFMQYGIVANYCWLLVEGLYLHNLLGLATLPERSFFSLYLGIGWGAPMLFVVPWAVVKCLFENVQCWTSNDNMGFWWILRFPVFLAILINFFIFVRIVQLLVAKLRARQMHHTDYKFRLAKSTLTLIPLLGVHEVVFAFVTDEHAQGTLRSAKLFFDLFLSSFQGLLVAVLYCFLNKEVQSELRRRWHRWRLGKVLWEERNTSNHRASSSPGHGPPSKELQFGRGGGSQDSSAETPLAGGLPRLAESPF
T1 sequence (P43220 24-463): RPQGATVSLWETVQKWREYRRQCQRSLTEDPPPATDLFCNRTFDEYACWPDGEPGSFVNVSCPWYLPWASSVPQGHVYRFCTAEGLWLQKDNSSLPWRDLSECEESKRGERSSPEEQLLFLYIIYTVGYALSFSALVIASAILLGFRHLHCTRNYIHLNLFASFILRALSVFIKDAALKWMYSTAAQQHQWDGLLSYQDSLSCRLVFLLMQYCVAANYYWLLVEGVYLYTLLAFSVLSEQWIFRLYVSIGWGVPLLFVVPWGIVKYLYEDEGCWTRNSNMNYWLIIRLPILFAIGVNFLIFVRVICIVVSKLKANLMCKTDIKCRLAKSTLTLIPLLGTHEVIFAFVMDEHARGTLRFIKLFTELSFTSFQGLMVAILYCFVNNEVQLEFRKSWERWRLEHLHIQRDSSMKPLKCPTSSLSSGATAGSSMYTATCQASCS

As for `CC(C)C[C@H](NC(=O)[C@H](Cc1ccc(O)cc1)NC(=O)[C@H](CCCCN)NC(=O)[C@H](CO)NC(=O)[C@H](Cc1ccc(O)cc1)NC(=O)[C@H](CC(=O)O)NC(=O)[C@H](CO)NC(=O)[C@@H](NC(=O)[C@H](Cc1ccccc1)NC(=O)[C@@H](NC(=O)CNC(=O)[C@H](CCC(N)=O)NC(=O)C(C)(C)NC(=O)[C@@H](N)Cc1c[nH]cn1)[C@@H](C)O)[C@@H](C)O)C(=O)N[C@@H](CC(=O)O)C(=O)N[C@@H](C)C(=O)N[C@@H](CCCNC(=N)N)C(=O)N[C@@H](C)C(=O)N[C@@H](C)C(=O)N[C@@H](CCCCNC(=O)COCCOCCNC(=O)COCCOCCNC(=O)CC[C@H](NC(=O)CCCCCCCCCCCCCCCCC(=O)O)C(=O)O)C(=O)N[C@@H](CC(=O)O)C(=O)N[C@@H](Cc1ccccc1)C(=O)N[C@H](C(=O)N[C@@H](CCC(N)=O)C(=O)N[C@@H](Cc1c[nH]c2ccccc12)C(=O)N[C@@H](CC(C)C)C(=O)N[C@@H](CCS(C)(=O)=O)C(=O)N[C@@H](CC(=O)O)C(=O)N[C@H](C(=O)O)[C@@H](C)O)C(C)C` [TP736] (H-H[Aib]QGTFTSDYSKYLDARAAK([AEEA-AEEA-γGlu-C18 diacid])DFVQWL[Met(O2)]DT-OH), the EC50 in experiment [1] (setting [3]) and in experiment [2] (setting [4]) was less than 5 nM throughout. Moreover, the “hGCGR/hGLP1R (hTone)” value in experiment [2] was determined as 2.8.
Turning to `CC(C)C[C@H](NC(=O)[C@H](Cc1c[nH]c2ccccc12)NC(=O)[C@H](CCCCNC(=O)COCCOCCNC(=O)COCCOCCNC(=O)CC[C@H](NC(=O)CCCCCCCCCCCCCCCCC(=O)O)C(=O)O)NC(=O)[C@@H](NC(=O)[C@H](Cc1ccccc1)NC(=O)[C@H](CC(=O)O)NC(=O)[C@H](CCC(N)=O)NC(=O)[C@H](C)NC(=O)[C@H](C)NC(=O)[C@H](CCCNC(=N)N)NC(=O)C(C)(C)NC(=O)[C@H](CC(=O)O)NC(=O)[C@H](CC(C)C)NC(=O)[C@H](Cc1ccc(O)cc1)NC(=O)[C@H](CCCCN)NC(=O)[C@H](CO)NC(=O)[C@H](Cc1ccc(O)cc1)NC(=O)[C@H](CC(=O)O)NC(=O)[C@H](CO)NC(=O)[C@@H](NC(=O)[C@H](Cc1ccccc1)NC(=O)[C@@H](NC(=O)CNC(=O)[C@H](CCC(N)=O)NC(=O)C(C)(C)NC(=O)[C@@H](N)Cc1c[nH]cn1)[C@@H](C)O)[C@@H](C)O)C(C)C)C(=O)N[C@@H](CCS(C)(=O)=O)C(=O)N[C@@H](CC(=O)O)C(=O)N[C@H](C(=O)O)[C@@H](C)O` [TP737] (H-H[Aib]QGTFTSDYSKYLD[Aib]RAAQDFVK([AEEA-AEEA-γGlu-C18 diacid])WL[Met(O2)]DT-OH; N-terminus assumed), the 50% effective concentration (EC50) in experiment [1] (setting [3]) and in experiment [2] (setting [4]) was less than 5 nM throughout. For the same compound, the “hGCGR/hGLP1R (hTone)” value in experiment [2] is listed as 0.6.
For `CC(C)C[C@H](NC(=O)[C@H](Cc1c[nH]c2ccccc12)NC(=O)[C@H](CCCCNC(=O)COCCOCCNC(=O)COCCOCCNC(=O)CC[C@H](NC(=O)CCCCCCCCCCCCCCC(=O)O)C(=O)O)NC(=O)[C@@H](NC(=O)[C@H](Cc1ccccc1)NC(=O)[C@H](CC(=O)O)NC(=O)[C@H](CCC(N)=O)NC(=O)[C@H](C)NC(=O)[C@H](C)NC(=O)[C@H](CCCNC(=N)N)NC(=O)C(C)(C)NC(=O)[C@H](CC(=O)O)NC(=O)[C@H](CC(C)C)NC(=O)[C@H](Cc1ccc(O)cc1)NC(=O)[C@H](CCCCN)NC(=O)[C@H](CO)NC(=O)[C@H](Cc1ccc(O)cc1)NC(=O)[C@H](CC(=O)O)NC(=O)[C@H](CO)NC(=O)[C@@H](NC(=O)[C@H](Cc1ccccc1)NC(=O)[C@@H](NC(=O)CNC(=O)[C@H](CCC(N)=O)NC(=O)C(C)(C)NC(=O)[C@@H](N)Cc1c[nH]cn1)[C@@H](C)O)[C@@H](C)O)C(C)C)C(=O)N[C@@H](CCS(C)(=O)=O)C(=O)N[C@@H](CC(=O)O)C(=O)N[C@H](C(N)=O)[C@@H](C)O` [TP811] (H-H[Aib]QGTFTSDYSKYLD[Aib]RAAQDFVK([AEEA-AEEA-γGlu-C16 diacid])WL[Met(O2)]DT-NH2; N-terminus assumed), the EC50 in experiment [1] (cells expressing human GLP1R, cAMP production, buffer with or without 20% human serum (not stated which), read-out: GLP1R EC50 human) was 0.26 nM; in experiment [1] (setting [3]), less than 5 nM; in experiment [2] (setting [5]), 0.21 nM; in experiment [2] (setting [4]), less than 5 nM. In addition, the “hGCGR/hGLP1R (hTone)” value in experiment [2] was determined as 0.8.
As to `CC(C)C[C@H](NC(=O)[C@H](Cc1ccc(O)cc1)NC(=O)[C@H](CCCCN)NC(=O)[C@H](CO)NC(=O)[C@H](Cc1ccc(O)cc1)NC(=O)[C@H](CC(=O)O)NC(=O)[C@H](CO)NC(=O)[C@@H](NC(=O)[C@H](Cc1ccccc1)NC(=O)[C@@H](NC(=O)CNC(=O)[C@H](CCC(N)=O)NC(=O)C(C)(C)NC(=O)[C@@H](N)Cc1c[nH]cn1)[C@@H](C)O)[C@@H](C)O)C(=O)N[C@@H](CC(=O)O)C(=O)N[C@@H](C)C(=O)N[C@@H](CCCNC(=N)N)C(=O)N[C@@H](C)C(=O)N[C@@H](C)C(=O)N[C@@H](CCCCNC(=O)COCCOCCNC(=O)COCCOCCNC(=O)CC[C@H](NC(=O)CCCCCCCCCCCCCCC(=O)O)C(=O)O)C(=O)N[C@@H](CCC(=O)O)C(=O)N[C@@H](Cc1ccccc1)C(=O)N[C@H](C(=O)N[C@@H](CCC(N)=O)C(=O)N[C@@H](Cc1c[nH]c2ccccc12)C(=O)N[C@@H](CC(C)C)C(=O)N[C@@H](CCS(C)(=O)=O)C(=O)N[C@@H](CC(=O)O)C(=O)N[C@H](C(N)=O)[C@@H](C)O)C(C)C` [TP812] (H-H[Aib]QGTFTSDYSKYLDARAAK([AEEA-AEEA-γGlu-C16 diacid])EFVQWL[Met(O2)]DT-NH2), the 50% effective concentration (EC50) in experiment [1] (setting [3]) was less than 5 nM; in experiment [2] (setting [5]) it was 0.2 nM; in experiment [2] (setting [4]), less than 5 nM. Moreover, in experiment [2], the “hGCGR/hGLP1R (hTone)” value came out at 2.3.
On to `CC(C)C[C@H](NC(=O)[C@H](Cc1ccc(O)cc1)NC(=O)[C@H](CCCCN)NC(=O)[C@H](CO)NC(=O)[C@H](Cc1ccc(O)cc1)NC(=O)[C@H](CC(=O)O)NC(=O)[C@H](CO)NC(=O)[C@@H](NC(=O)[C@H](Cc1ccccc1)NC(=O)[C@@H](NC(=O)CNC(=O)[C@H](CCC(N)=O)NC(=O)C(C)(C)NC(=O)[C@@H](N)Cc1c[nH]cn1)[C@@H](C)O)[C@@H](C)O)C(=O)N[C@@H](CC(=O)O)C(=O)N[C@@H](C)C(=O)N[C@@H](CCCNC(=N)N)C(=O)N[C@@H](C)C(=O)N[C@@H](C)C(=O)N[C@@H](CCC(N)=O)C(=O)N[C@@H](CCC(=O)O)C(=O)N[C@@H](Cc1ccccc1)C(=O)N[C@H](C(=O)N[C@@H](CCCCNC(=O)COCCOCCNC(=O)COCCOCCNC(=O)CC[C@H](NC(=O)CCCCCCCCCCCCCCC(=O)O)C(=O)O)C(=O)N[C@@H](Cc1c[nH]c2ccccc12)C(=O)N[C@@H](CC(C)C)C(=O)N[C@@H](CCS(C)(=O)=O)C(=O)N[C@@H](CC(=O)O)C(=O)N[C@H](C(N)=O)[C@@H](C)O)C(C)C` [TP813] (H-H[Aib]QGTFTSDYSKYLDARAAQEFVK([AEEA-AEEA-γGlu-C16 diacid])WL[Met(O2)]DT-NH2; N-terminus assumed), for which the EC50 in experiment [1] (setting [3]) was less than 5 nM; in experiment [2] (setting [5]) it was 0.21 nM; in experiment [2] (setting [4]) it was less than 5 nM. Also, the “hGCGR/hGLP1R (hTone)” value in experiment [2] turned out to be 1.6.
`CC(C)C[C@H](NC(=O)[C@H](Cc1ccc(O)cc1)NC(=O)[C@H](CCCCN)NC(=O)[C@H](CO)NC(=O)[C@H](Cc1ccc(O)cc1)NC(=O)[C@H](CC(=O)O)NC(=O)[C@H](CO)NC(=O)[C@@H](NC(=O)[C@H](Cc1ccccc1)NC(=O)[C@@H](NC(=O)CNC(=O)[C@H](CCC(N)=O)NC(=O)C(C)(C)NC(=O)[C@@H](N)Cc1c[nH]cn1)[C@@H](C)O)[C@@H](C)O)C(=O)N[C@@H](CC(=O)O)C(=O)N[C@@H](C)C(=O)N[C@@H](CCCNC(=N)N)C(=O)N[C@@H](C)C(=O)N[C@@H](C)C(=O)N[C@@H](CCCCNC(=O)COCCOCCNC(=O)COCCOCCNC(=O)CC[C@H](NC(=O)CCCCCCCCCCCCCCC(=O)O)C(=O)O)C(=O)N[C@@H](CC(=O)O)C(=O)N[C@@H](Cc1ccccc1)C(=O)N[C@H](C(=O)N[C@@H](CCC(N)=O)C(=O)N[C@@H](Cc1c[nH]c2ccccc12)C(=O)N[C@@H](CC(C)C)C(=O)N[C@@H](CCS(C)(=O)=O)C(=O)N[C@@H](CCC(=O)O)C(=O)N[C@H](C(N)=O)[C@@H](C)O)C(C)C` [TP814] (H-H[Aib]QGTFTSDYSKYLDARAAK([AEEA-AEEA-γGlu-C16 diacid])DFVQWL[Met(O2)]ET-NH2; N-terminus assumed): the half-maximal effective concentration (EC50) in experiment [1] (setting [3]) and in experiment [2] (setting [4]) was less than 5 nM throughout. Besides, the “hGCGR/hGLP1R (hTone)” value in experiment [2] is recorded as 2.0.
Turning to `CC(C)C[C@H](NC(=O)[C@H](Cc1c[nH]c2ccccc12)NC(=O)[C@H](CCCCNC(=O)COCCOCCNC(=O)COCCOCCNC(=O)CC[C@H](NC(=O)CCCCCCCCCCCCCCC(=O)O)C(=O)O)NC(=O)[C@@H](NC(=O)[C@H](Cc1ccccc1)NC(=O)[C@H](CC(=O)O)NC(=O)[C@H](CCC(N)=O)NC(=O)[C@H](C)NC(=O)[C@H](C)NC(=O)[C@H](CCCNC(=N)N)NC(=O)C(C)(C)NC(=O)[C@H](CC(=O)O)NC(=O)[C@H](CC(C)C)NC(=O)[C@H](Cc1ccc(O)cc1)NC(=O)[C@H](CCCCN)NC(=O)[C@H](CO)NC(=O)[C@H](Cc1ccc(O)cc1)NC(=O)[C@H](CC(=O)O)NC(=O)[C@H](CO)NC(=O)[C@@H](NC(=O)[C@H](Cc1ccccc1)NC(=O)[C@@H](NC(=O)CNC(=O)[C@H](CCC(N)=O)NC(=O)C(C)(C)NC(=O)[C@@H](N)Cc1c[nH]cn1)[C@@H](C)O)[C@@H](C)O)C(C)C)C(=O)N[C@@H](CCS(C)(=O)=O)C(=O)N[C@@H](CCC(=O)O)C(=O)N[C@H](C(N)=O)[C@@H](C)O` [TP815] (H-H[Aib]QGTFTSDYSKYLD[Aib]RAAQDFVK([AEEA-AEEA-γGlu-C16 diacid])WL[Met(O2)]ET-NH2), the concentration for a half-maximal effect (EC50) in experiment [1] (setting [3]) and in experiment [2] (setting [4]) was less than 5 nM throughout. Besides, the “hGCGR/hGLP1R (hTone)” value in experiment [2] came to 0.7.

For the origin of these results see patent US11566057B2, “Long-acting co-agonists of the glucagon and GLP-1 receptors” (Merck Sharp & Dohme Corp., priority 2017, dated 2023).
